IC50 data for 20 molecules are collected here from US20130244999A1, “Substituted Heterocyclic Compounds” (Incyte Corporation, priority 2008, published 2013).

T1 sequence (Q9H3N8 whole entry): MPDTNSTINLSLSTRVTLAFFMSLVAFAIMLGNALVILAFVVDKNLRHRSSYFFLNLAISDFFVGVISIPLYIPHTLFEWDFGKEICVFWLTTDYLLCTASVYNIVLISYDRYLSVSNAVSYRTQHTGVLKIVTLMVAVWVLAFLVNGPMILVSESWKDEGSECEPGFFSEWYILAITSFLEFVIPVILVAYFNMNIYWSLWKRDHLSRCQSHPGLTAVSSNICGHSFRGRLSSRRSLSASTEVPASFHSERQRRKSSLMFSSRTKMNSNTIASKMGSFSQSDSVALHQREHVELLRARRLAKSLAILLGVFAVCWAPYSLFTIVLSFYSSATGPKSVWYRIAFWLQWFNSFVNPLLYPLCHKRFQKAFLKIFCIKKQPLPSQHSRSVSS

The test addresses T1, histamine H4 receptor (Homo sapiens, UniProt Q9H3N8).
T1 construct: expressed in transfected cells; host or cells: HEK293SFM cells (membrane preparation)
In words: Inhibition of histamine H4 receptor (Table A1; H4 membrane binding assay). The conditions noted are these: histamine H4 receptor; "> a" = exceeds experiment limit. Summed up:
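Membranes came from recombinant HEK293SFM cells expressing human H4, homogenized in 50 mM Tris-HCl pH 7.5 with protease inhibitors. Nonspecific binding was set with 1000× unlabeled ligand. Bound radioligand was separated on PEI-treated GF/B filters and counted by liquid scintillation.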
Consider `CC1Cc2ccc(-c3ccc4c(c3)N(C)C(=O)CO4)cc2CN1c1cc(N2CCN(C)CC2)nc(N)n1` (centres unmarked) [Example 132, 6-{2-[2-Amino-6-(4-methylpiperazin-1-yl)pyrimidin-4-yl]-3-methyl-1,2,3,4-tetrahydroisoquinolin-7-yl}-4-methyl-2H-1,4-benzoxazin-3(4H)-one], for which the IC50 (usually the concentration needed to halve the response being measured) was 39 nM.

For `CNC(=O)c1cnc(-c2ccc3c(c2)CN(c2cc(N4CCN(C)CC4)nc(N)n2)C(C)C3)s1` (centres unmarked) [Example 133, 2-{2-[2-amino-6-(4-methylpiperazin-1-yl)pyrimidin-4-yl]-3-methyl-1,2,3,4-tetrahydroisoquinolin-7-yl}-N-methyl-1,3-thiazole-5-carboxamide], the IC50 was determined as 59 nM.

The molecule `CC1Cc2ccc(-c3ncc(C(=O)N(C)C)s3)cc2CN1c1cc(N2CCN(C)CC2)nc(N)n1` (centres unmarked) [Example 134, 2-{2-[2-Amino-6-(4-methylpiperazin-1-yl)pyrimidin-4-yl]-3-methyl-1,2,3,4-tetrahydroisoquinolin-7-yl}-N,N-dimethyl-1,3-thiazole-5-carboxamide] registered a half-inhibitory concentration (IC50) of 38 nM.

In turn, `CC1Cc2ccc(-c3cnc4[nH]cnc4c3)cc2CN1c1cc(N2CCN(C)CC2)nc(N)n1` (centres unmarked) [Example 135, 4-[7-(3H-Imidazo[4,5-b]pyridin-6-yl)-3-methyl-3,4-dihydroisoquinolin-2(1H)-yl]-6-(4-methylpiperazin-1-yl)pyrimidin-2-amine] gave a half-inhibitory concentration (IC50) of 48 nM.

Molecule `CC1Cc2ccc(C3=CCN(C(=O)NC4CCCC4)CC3)cc2CN1c1cc(N2CCN(C)CC2)nc(N)n1` (centres unmarked) [Example 136, 4-{2-[2-Amino-6-(4-methylpiperazin-1-yl)pyrimidin-4-yl]-3-methyl-1,2,3,4-tetrahydroisoquinolin-7-yl}-N-cyclopentyl-3,6-dihydropyridine-1(2H)-carboxamide] returned a 50% inhibitory concentration (IC50) of 68 nM.

The molecule `CC1Cc2ccc(C3=CCN(c4cc(C#N)ccn4)CC3)cc2CN1c1cc(N2CCN(C)CC2)nc(N)n1` (centres unmarked) [Example 137, 4-{2-[2-Amino-6-(4-methylpiperazin-1-yl)pyrimidin-4-yl]-3-methyl-1,2,3,4-tetrahydroisoquinolin-7-yl}-3,6-dihydro-2H-1,2′-bipyridine-4′-carbonitrile] had an IC50 of 84 nM.

`CC1Cc2ccc(C3CCN(C(=O)CC4CCCC4)CC3)cc2CN1c1cc(N2CCN(C)CC2)nc(N)n1` (centres unmarked) [Example 138, 4-[7-[1-(Cyclopentylacetyl)piperidin-4-yl]-3-methyl-3,4-dihydroisoquinolin-2(1H)-yl]-6-(4-methylpiperazin-1-yl)pyrimidin-2-amine]: the IC50 turned out to be 64 nM.

Molecule `CC(C)OC(=O)N1CCC(c2ccc3c(c2)CN(c2cc(N4CCN(C)CC4)nc(N)n2)C(C)C3)CC1` (centres unmarked) [Example 139, Isopropyl 4-{2-[2-amino-6-(4-methylpiperazin-1-yl)pyrimidin-4-yl]-3-methyl-1,2,3,4-tetrahydroisoquinolin-7-yl}piperidine-1-carboxylate] registered an IC50 of 54 nM.

`CC(C)NC(=O)N1CCC(c2ccc3c(c2)CN(c2cc(N4CCN(C)CC4)nc(N)n2)C(C)C3)CC1` (centres unmarked) [Example 140, 4-{2-[2-Amino-6-(4-methylpiperazin-1-yl)pyrimidin-4-yl]-3-methyl-1,2,3,4-tetrahydroisoquinolin-7-yl}-N-isopropylpiperidine-1-carboxamide]: the IC50 is 80 nM.

Consider `CC1Cc2ccc(C3CCN(C(=O)N(C)C)CC3)cc2CN1c1cc(N2CCN(C)CC2)nc(N)n1` (centres unmarked) [Example 141, 4-{2-[2-Amino-6-(4-methylpiperazin-1-yl)pyrimidin-4-yl]-3-methyl-1,2,3,4-tetrahydroisoquinolin-7-yl}-N,N-dimethylpiperidine-1-carboxamide], for which the IC50 was 40 nM.

The molecule `CC1Cc2ccc(C3CCN(C(=O)N(C)C)CC3)cc2CN1c1cc(N2CCN(C)CC2)nc(N)n1` (centres unmarked) [Example 144, 4-{2-[2-Amino-6-(4-methylpiperazin-1-yl)pyrimidin-4-yl]-3-methyl-1,2,3,4-tetrahydroisoquinolin-7-yl}-N,N-dimethylpiperidine-1-carboxamide] gave an IC50 of 24 nM.

In the case of `CCNC(=O)N1CCC(c2ccc3c(c2)CN(c2cc(N4CCN(C)CC4)nc(N)n2)C(C)C3)CC1` (centres unmarked) [Example 145, 4-{2-[2-Amino-6-(4-methylpiperazin-1-yl)pyrimidin-4-yl]-3-methyl-1,2,3,4-tetrahydroisoquinolin-7-yl}-N-ethylpiperidine-1-carboxamide], the concentration for half-maximal inhibition (IC50) is 36 nM.

`CC(=O)N1CCC(c2ccc3c(c2)CN(c2cc(N4CCN(C)CC4)nc(N)n2)C(C)C3)CC1` (centres unmarked) [Example 146, 4-[7-(1-Acetylpiperidin-4-yl)-3-methyl-3,4-dihydroisoquinolin-2 (1H)-yl]-6-(4-methylpiperazin-1-yl)pyrimidin-2-amine]: the IC50 amounted to 22.8 nM.

Take `COC(=O)N1CCC(c2ccc3c(c2)CN(c2cc(N4CCN(C)CC4)nc(N)n2)C(C)C3)CC1` (centres unmarked) [Example 147, Methyl 4-{2-[2-amino-6-(4-methylpiperazin-1-yl)pyrimidin-4-yl]-3-methyl-1,2,3,4-tetrahydroisoquinolin-7-yl}piperidine-1-carboxylate]: the IC50 came out at 12.1 nM.

For the molecule `CC1Cc2ccc(C3CCN(S(C)(=O)=O)CC3)cc2CN1c1cc(N2CCN(C)CC2)nc(N)n1` (centres unmarked) [Example 148, 4-[3-Methyl-7-[1-(methylsulfonyl)piperidin-4-yl]-3,4-dihydroisoquinolin-2(1H)-yl]-6-(4-methylpiperazin-1-yl)pyrimidin-2-amine], the half-inhibitory concentration (IC50) turned out to be 30.6 nM.

The molecule `CCC(=O)N1CCC(c2ccc3c(c2)CN(c2cc(N4CCN(C)CC4)nc(N)n2)C(C)C3)CC1` (centres unmarked) [Example 149, 4-(4-Methylpiperazin-1-yl)-6-[3-methyl-7-(1-propionylpiperidin-4-yl)-3,4-dihydroisoquinolin-2 (1H)-yl]pyrimidin-2-amine] came in with an IC50 of 26.1 nM.

Regarding `CC1Cc2ccc(C3CCN(C(=O)C4CC4)CC3)cc2CN1c1cc(N2CCN(C)CC2)nc(N)n1` (centres unmarked) [Example 150, 4-[7-[1-(Cyclopropylcarbonyl)piperidin-4-yl]-3-methyl-3,4-dihydroisoquinolin-2(1H)-yl]-6-(4-methylpiperazin-1-yl)pyrimidin-2-amine], the IC50 amounted to 22.5 nM.

Take `CNC(=O)N1CCC(c2ccc3c(c2)CN(c2cc(N4CCN(C)CC4)nc(N)n2)C(C)C3)CC1` (centres unmarked) [Example 151, 4-{2-[2-Amino-6-(4-methylpiperazin-1-yl)pyrimidin-4-yl]-3-methyl-1,2,3,4-tetrahydroisoquinolin-7-yl}-N-methylpiperidine-1-carboxamide]: the half-maximal inhibitory concentration (IC50) was 42.1 nM.

`CCS(=O)(=O)N1CCC(c2ccc3c(c2)CN(c2cc(N4CCN(C)CC4)nc(N)n2)C(C)C3)CC1` (centres unmarked) [Example 152, 4-[7-[1-(Ethylsulfonyl)piperidin-4-yl]-3-methyl-3,4-dihydroisoquinolin-2(1H)-yl]-6-(4-methylpiperazin-1-yl)pyrimidin-2-amine] had a half-maximal inhibitory concentration (IC50) of 17.6 nM.

`CC1Cc2ccc(-c3ccnc(C(=O)N4CC(O)C4)c3)cc2CN1c1cc(N2CCN(C)CC2)nc(N)n1` (centres unmarked) [Example 153, 1-[(4-{2-[2-Amino-6-(4-methylpiperazin-1-yl)pyrimidin-4-yl]-3-methyl-1,2,3,4-tetrahydroisoquinolin-7-yl}pyridin-2-yl)carbonyl]azetidin-3-ol] yielded an IC50 of 27 nM.
